According to US20070004660A1, “Synergistic Modulation of Flt3 Kinase Using Alkylquinolines and Alkylquinazolines” (priority 2005, published 2007):

How the values were obtained:
MV4-11 cells = assay: Inhibition of MV4-11 cell proliferation (CellTiterGlo, 72 h); type: cell-based; conditions: Homo sapiens; 72 h growth inhibition; uncertainty ±20%
Procedure: MV4-11 cells cannot grow and survive without active FLT3ITD.
To measure proliferation inhibition by test compounds, the luciferase based CellTiterGlo reagent (Promega), which quantifies total cell number based on total cellular ATP concentration, was used. Cells are plated at 10,000 cells per well in 100 ul of in RPMI media containing penn/strep, 10% FBS and 1 ng/ml GM-CSF or 1 ng/ml IL-3 for MV4-11 and Baf3 cells respectively.
Compound dilutions or 0.1% DMSO (vehicle control) are added to cells and the cells are allowed to grow for 72 hours at standard cell growth conditions (37° C., 5% CO2). For activity measurements in MV4-11 cells grown in 50% plasma, cells were plated at 10,000 cells per well in a 1:1 mixture of growth media and human plasma (final volume of 100 μL). To measure total cell growth an equal volume of CellTiterGlo reagent was added to each well, according to the manufacturer's instructions, and luminescence was quantified. Total cell growth was quantified as the difference in luminescent counts (relative light units, RLU) of cell number at Day 0 compared to total cell number at Day 3 (72 hours of growth and/or compound treatment). One hundred percent inhibition of growth is defined as an RLU equivalent to the Day 0 reading. Zero percent inhibition was defined as the RLU signal for the DMSO vehicle control at Day 3 of growth. All data points are an average of triplicate samples. […] Inhibition and IC50 data analysis was done with GraphPad Prism using a non-linear regression fit with a multiparamater, sigmoidal dose-response (variable slope) equation.
MV4-11 cells express the FLT3 internal tandem duplication mutation, and thus are entirely dependent upon FLT3 activity for growth. […] In contrast, the Baf3 cell proliferation is driven by the cytokine IL-3 and thus are used as a non-specific toxicity control for test compounds.

wild-type FLT3 receptor = molecular target: T1, wild-type FLT3 receptor (Homo sapiens, UniProt P36888); assay: Cell-based FLT3 receptor ELISA (FLT ligand-induced phosphorylation in Baf3 FLT3 cells); conditions: 100 ng/mL Flt ligand, uncertainty ±20%
T1 construct: host or cells: Baf3 (murine B cell lymphoma line), stably transfected
T1 sequence (P36888 27-993): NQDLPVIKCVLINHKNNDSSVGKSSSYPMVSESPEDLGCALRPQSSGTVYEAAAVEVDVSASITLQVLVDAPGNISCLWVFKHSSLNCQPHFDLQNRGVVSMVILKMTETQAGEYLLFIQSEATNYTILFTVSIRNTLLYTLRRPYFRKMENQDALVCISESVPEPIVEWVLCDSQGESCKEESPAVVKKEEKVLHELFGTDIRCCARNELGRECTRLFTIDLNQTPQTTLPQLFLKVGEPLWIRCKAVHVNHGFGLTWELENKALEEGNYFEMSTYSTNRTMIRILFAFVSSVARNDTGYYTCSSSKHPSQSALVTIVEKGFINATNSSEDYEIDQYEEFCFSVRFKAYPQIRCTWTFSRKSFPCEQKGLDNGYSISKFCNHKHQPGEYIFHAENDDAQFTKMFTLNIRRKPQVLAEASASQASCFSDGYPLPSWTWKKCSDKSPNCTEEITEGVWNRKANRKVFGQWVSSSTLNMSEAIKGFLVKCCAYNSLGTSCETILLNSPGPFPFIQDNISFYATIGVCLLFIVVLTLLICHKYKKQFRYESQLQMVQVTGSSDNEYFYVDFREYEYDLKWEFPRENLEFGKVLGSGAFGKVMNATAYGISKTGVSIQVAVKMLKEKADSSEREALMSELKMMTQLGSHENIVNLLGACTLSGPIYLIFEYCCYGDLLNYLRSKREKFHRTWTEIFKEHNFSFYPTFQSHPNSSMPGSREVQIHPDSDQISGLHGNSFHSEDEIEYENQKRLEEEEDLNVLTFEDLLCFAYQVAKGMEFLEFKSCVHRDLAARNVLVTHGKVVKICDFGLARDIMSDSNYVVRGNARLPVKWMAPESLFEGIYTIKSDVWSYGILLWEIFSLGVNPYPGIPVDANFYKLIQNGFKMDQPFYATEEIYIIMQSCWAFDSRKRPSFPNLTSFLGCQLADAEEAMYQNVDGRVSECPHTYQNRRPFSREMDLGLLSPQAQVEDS
Procedure: Specific cellular inhibition of FLT ligand-induced wild-type FLT3 phosphorylation was measured in the following manner: Baf3 FLT3 cells overexpressing the FLT3 receptor were obtained from Dr. Michael Heinrich (Oregon Health and Sciences University). The Baf3 FLT3 cell lines were created by stable transfection of parental Baf3 cells (a murine B cell lymphoma line dependent on the cytokine IL-3 for growth) with wild-type FLT3. Cells were selected for their ability to grow in the absence of IL-3 and in the presence of FLT3 ligand. Baf3 cells were maintained in RPMI 1640 with 10% FBS, penn/strep and 10 ng/ml FLT ligand at 37° C., 5% CO2. To measure direct inhibition of the wild-type FLT3 receptor activity and phosphorylation a sandwich ELISA method was developed similar to those developed for other RTKs (see Sadick, M D, Sliwkowski, M X, Nuijens, A, Bald, L, Chiang, N, Lofgren, J A, Wong W L T. Analysis of Heregulin-Induced ErbB2 Phosphorylation with a High-Throughput Kinase Receptor Activation Enzyme-Linked Immunsorbent Assay, Analytical Biochemistry. 1996; 235:207-214 and Baumann C A, Zeng L, Donatelli R R, Maroney A C. Development of a quantitative, high-throughput cell-based enzyme-linked immunosorbent assay for detection of colony-stimulating factor-1 receptor tyrosine kinase inhibitors. J Biochem Biophys Methods. 2004; 60:69-79.). 200 μL of Baf3FLT3 cells (1×10^6 /mL) were plated in 96 well dishes in RPMI 1640 with 0.5% serum and 0.01 ng/mL IL-3 for 16 hours prior to 1 hour compound or DMSO vehicle incubation. Cells were treated with 100 ng/mL Flt ligand (R&D Systems Cat# 308-FK) for 10 min. at 37° C. Cells were pelleted, washed and lysed in 100 ul lysis buffer (50 mM Hepes, 150 mM NaCl, 10% Glycerol, 1% Triton-X-100, 10 mM NaF, 1 mM EDTA, 1.5 mM MgCl2, 10 mM NaPyrophosphate) supplemented with phosphatase (Sigma Cat# P2850) and protease inhibitors (Sigma Cat #P8340). Lysates were cleared by centrifugation at 1000×g for 5 minutes at 4° C. Cell lysates were transferred to white wall 96 well microtiter (Costar #9018) plates coated with 50 ng/well anti-FLT3 antibody (Santa Cruz Cat# sc-480) and blocked with SeaBlock reagent (Pierce Cat#37527). Lysates were incubated at 4° C. for 2 hours. Plates were washed 3× with 200 ul/well PBS/0.1% Triton-X-100. Plates were then incubated with 1:8000 dilution of HRP-conjugated anti-phosphotyrosine antibody (Clone 4G10, Upstate Biotechnology Cat#16-105) for 1 hour at room temperature. Plates were washed 3× with 200 ul/well PBS/0.1% Triton-X-100. Signal detection with Super Signal Pico reagent (Pierce Cat#37070) was done according to manufacturer's instruction with a Berthold microplate luminometer. All data points are an average of triplicate samples. […] Inhibition and IC50 data analysis was done with GraphPad Prism using a non-linear regression fit with a multiparamater, sigmoidal dose-response (variable slope) equation.

[1] = molecular target: T2, isolated kinase domain of the human FLT3 receptor (a.a. 571-993) (Homo sapiens, UniProt P36888); assay: FLT3 fluorescence polarization kinase assay; type: biochemical; conditions: 150 uM ATP; uncertainty ±10%
T2 construct: human FLT3 receptor (a.a. 571-993)
T2 sequence (P36888 571-993): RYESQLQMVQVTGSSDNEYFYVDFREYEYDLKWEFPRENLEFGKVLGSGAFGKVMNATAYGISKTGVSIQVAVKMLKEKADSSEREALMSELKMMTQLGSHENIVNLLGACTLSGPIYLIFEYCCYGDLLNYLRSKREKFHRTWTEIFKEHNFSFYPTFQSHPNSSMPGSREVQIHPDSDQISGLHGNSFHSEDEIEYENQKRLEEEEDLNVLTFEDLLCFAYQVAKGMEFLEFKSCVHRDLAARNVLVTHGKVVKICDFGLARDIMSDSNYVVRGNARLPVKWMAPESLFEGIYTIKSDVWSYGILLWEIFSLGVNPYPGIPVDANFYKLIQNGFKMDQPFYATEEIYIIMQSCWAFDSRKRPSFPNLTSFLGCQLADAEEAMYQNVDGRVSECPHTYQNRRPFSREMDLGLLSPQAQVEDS
Procedure: The FLT3 FP assay utilizes the fluorescein-labeled phosphopeptide and the anti-phosphotyrosine antibody included in the Panvera Phospho-Tyrosine Kinase Kit (Green) supplied by Invitrogen. When FLT3 phosphorylates polyGlu4Tyr, the fluorescein-labeled phosphopeptide is displaced from the anti-phosphotyrosine antibody by the phosphorylated poly Glu4Tyr, thus decreasing the FP value. The FLT3 kinase reaction is incubated at room temperature for 30 minutes under the following conditions: 10 nM FLT3 571-993, 20 ug/mL poly Glu4Tyr, 150 uM ATP, 5 mM MgCl2, 1% compound in DMSO. The kinase reaction is stopped with the addition of EDTA. The fluorescein-labeled phosphopeptide and the anti-phosphotyrosine antibody are added and incubated for 30 minutes at room temperature.
All data points are an average of triplicate samples. Inhibition and IC50 data analysis was done with GraphPad Prism using a non-linear regression fit with a multiparamater, sigmoidal dose-response (variable slope) equation.

Structure (SMILES) | IC50 (MV4-11 cells) | IC50 (wild-type FLT3 receptor) | IC50 [1]
COc1cc2ncnc(C3CCN(C(=O)Nc4ccc(Cl)cc4)CC3)c2cc1OC [Example 49, 4-(6,7-Dimethoxy-quinazolin-4-yl)-piperidine-1-carboxylic acid (4-chloro-phenyl)-amide] | 7 µM | > 3 µM | 
COc1cc2ncnc(C3CCN(C(=O)Nc4ccc(C5CCNCC5)cc4)CC3)c2cc1OC [Example 64, 4-(6,7-Dimethoxy-quinazolin-4-yl)-piperidine-1-carboxylic acid (4-piperidin-4-yl-phenyl)-amide] | 0.33 µM | 0.357 µM | 
O=C(Nc1ccc(N2CCOCC2)cc1)N1CCC(c2ncnc3cc(OCCCN4CCNCC4)ccc23)CC1 [Example 123, 4-[7-(3-Piperazin-1-yl-propoxy)-quinazolin-4-yl]-piperidine-1-carboxylic acid (4-morpholin-4-yl-phenyl)-amide] |  | 0.002 µM | 0.008 µM

Further lines, results first:

IC50 (MV4-11 cells) | IC50 (wild-type FLT3 receptor) | IC50 [1] | Structure (SMILES)
 | 0.037 µM | 0.26 µM | CN1CCC(Oc2ccc3c(C4CCN(C(=O)Nc5ccc(N6CCOCC6)cc5)CC4)ncnc3c2)CC1 [Example 127, 4-[7-(1-Methyl-piperidin-4-yloxy)-quinazolin-4-yl]-piperidine-1-carboxylic acid (4-morpholin-4-yl-phenyl)-amide]
 | 0.586 µM | 0.626 µM | COC[C@H]1CCCN1c1ccc2c(C3CCN(C(=O)Nc4ccc(N5CCOCC5)cc4)CC3)ncnc2c1 [Example 130, (R)-4-[7-(2-Methoxymethyl-pyrrolidin-1-yl)-quinazolin-4-yl]-piperidine-1-carboxylic acid (4-morpholin-4-yl-phenyl)-amide]
